Assay results as given in paper PMC4030970, “Structural Evidence for the Tetrameric Assembly of Chemokine CCL11 and the Glycosaminoglycan Arixtra™” (Biomolecules, 2013).

How the values were obtained:
CCL11 (Eotaxin-1) = target: T1, CCL11 (Eotaxin-1) (Homo sapiens, UniProt P51671); test: isothermal titration calorimetry; assay type: binding
T1 construct: mature wild-type CCL11; monomer mass about 8360 Da from m/z; monomer-dimer-tetramer mixture

CCL2 = target: T2, CCL2 (Homo sapiens, UniProt P13500); test: isothermal titration calorimetry; assay type: binding
T2 construct: construct and preparation not described in the main text; monomer-dimer, tetramer with saturating GAG
T2 sequence (P13500 24-99): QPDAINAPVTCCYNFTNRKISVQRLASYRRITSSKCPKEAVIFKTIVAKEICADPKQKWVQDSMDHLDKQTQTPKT

- Kd (CCL11 (Eotaxin-1)): 2.71 ± 0.284 µM
- Kd (CCL2): 7.98 ± 0.77 µM
Structure (SMILES): CO[C@H]1O[C@H](COS(=O)(=O)O)[C@@H](O[C@@H]2O[C@@H](C(=O)O)[C@@H](O[C@H]3O[C@H](COS(=O)(=O)O)[C@@H](O[C@@H]4O[C@H](C(=O)O)[C@@H](O[C@H]5O[C@H](COS(=O)(=O)O)[C@@H](O)[C@H](O)[C@H]5NS(=O)(=O)O)[C@H](O)[C@H]4O)[C@H](OS(=O)(=O)O)[C@H]3NS(=O)(=O)O)[C@H](O)[C@H]2OS(=O)(=O)O)[C@H](O)[C@H]1NS(=O)(=O)O [Arixtra]
